Patent US20140357563A1, “Compositions and Methods for the Generation of Activated Protein C and Methods of Use Thereof” (The Children's Hospital of Philadelphia, priority 2011, published 2014)
Entries after “also recorded” stand apart in the source; their conditions may differ.

What was measured:
[1] = test system: thrombin (IIa)/thrombomodulin (TM) complex, TM+CS; assay: In vitro aPC generation assay in solution, IIa/TM complex with TM containing chondroitin sulfate side chains (TM+CS, TMCS); format: biochemical, rabbit or human; details: for effect of heparinoid on aPC generation with high doses of PF4 and histones: conditions simulating late sepsis; for effect of heparinoid on aPC generation at low levels of histones: histones 0-10 μg/ml, heparinoid 2, 5 or 10 μg/ml; for effect of heparinoid on aPC generation at low levels of histones / effect of heparinoid on aPC generation at higher levels of histones: FIG. 7; for effect of heparinoid on aPC generation at higher levels of histones: histones >10 μg/ml; for increase of aPC generation by PF4 in absence of histones: TMCS 0.5 nM, FIG. 6A
Method: (§1) Generation of aPC was assayed in 96-well plates as described previously (Slungaard et al. (1994) J. Biol. Chem., 269:25549-25556; Slungaard et al. (1993) J. Clin. Invest., 91:1721-1730). Briefly, thrombomodulin (TM) was mixed with various amounts of PF4 and/or heparin for 10 minutes in assay buffer (final concentration, 20 mM Tris, 100 mM NaCl, 1 mM CaCl2, 0.1% BSA, pH 7.5). Protein C (PC) was added for an additional 10 minutes followed by addition of thrombin (IIa) at a final concentration of either 0.2 or 2 nM and 15 minutes of incubation. All incubations were done at 37° C. Final concentrations of TM and PC were 0.5 nM and 500 nM, respectively.
Generation of aPC was assayed in 96-well plates generally as described above. Briefly, rabbit or human sTMCS or sTM−CS, was mixed with various amounts of histones, PF4 and/or heparinoid for 10 minutes in assay buffer (final concentration, 20 mM Tris, 100 mM NaCl, 1 mM CaCl2, 0.1% BSA, pH 7.5). Final concentrations of TMs were 0.5-40 nM. PC (final concentration, 500 nM) was added for an additional 10 minutes followed by addition of IIa at a final concentration of 0.2 or 2 nM and then incubated for 15 minutes. All incubations were done at 37° C. The reaction was quenched with 1 mM EDTA and 100 nM hirudin. Concentrations of aPC formed in the quenched samples were inferred from initial rate measurements after the addition of 0.5 mM S2366. Initial rates of chromogenic substrate cleavage were determined by measuring absorbance at 405 nm using a ThermoMax™ Microtiter Vmax® plate reader (Molecular Devices; Sunnyvale, Calif.).

plasma aPC = assay: In vivo aPC generation measured in mouse plasma; details: for effect of heparinoid on aPC generation after histones: histones 50 mg/kg
Method: Generation of aPC in vivo was assayed in plasma of mice as described (Kowalska et al. (2007) Blood 110:1903-1905). Mice were injected into the jugular vein. After 10 minutes, blood was drawn into sodium citrate/benzamidine (final concentration, 5 mM/50 mM, respectively), centrifuged for 10 minutes at 4500 g at 4° C., and plasma was frozen. Plasma aPC levels were subsequently measured by capture ELISA using antimouse aPC antibody and chromogenic substrate Spectrozyme® PCa (American Diagnostica) (Li et al. (2005) J. Thromb. Haemost., 3:1351-1359).
In vivo aPC generation was assayed in plasma of mice generally as described above. […] After 10 minutes, blood was drawn into sodium citrate/benzamidine (final concentration 5 mM/50 mM, respectively), centrifuged for 10 minutes at 5,000 rpm at 4° C. and plasma frozen. […] Some animals were pre-injected with UFH or ODSH 10 minutes before injection of histones. Plasma aPC levels were measured by capture ELISA (Li et al. (2005) J. Thromb. Haemost., 3:1351-1359) using an anti-mouse aPC antibody and chromogenic substrate Spectrozyme® PCa (American Diagnostica; Stamford, Conn.).

mice = assay: Histone-induced lethality in mice; format: in vivo, mouse; details: heparinoid 50 mg/kg, histones 75 mg/kg, WT mice
[2] = aPTT in mouse plasma after injection of heparinoids with or without histones; format: in vivo; details: for severe prolongation of aPTT in presence of high (sub-lethal and lethal) concentrations of histones: heparinoid 50 mg/kg 10 minutes before histones, WT mice, FIG. 9B
Method: Blood was collected from cut tails 20 minutes after injection of heparinoids and aPTT measured in plasma. FIG. 9A: WT mice were injected with control buffer (at 0 mg/kg heparanoid concentrations) or UFH (dark squares) or ODSH (open triangles) at the concentrations indicated. FIG. 9B: WT mice were injected with control buffer (open circles) or 50 mg/kg of either UFH (black square) or ODSH (gray triangles) 10 minutes before injection of increasing concentrations of histones. N=5 mice per data point. Mean±1 SD are shown.

antithrombin = details: Fryer et al. (1997); cited from earlier work
[3] = test system: thrombin (IIa)/thrombomodulin (TM) complex; assay: In vitro aPC assay in solution, on human TM expressing HEK293 and on primary endothelial cells; format: cell-based
Method: as §1
To measure aPC formation, HEK-K293 cells stably expressing human TM on their surface cells were allowed to adhere overnight onto 24-well plates (5×10^5 cells/well) in DMEM/F12 media containing 10% FBS (Feistritzer et al. (2006) J. Biol. Chem., 281:20077-20084). Cells were washed twice with DMEM/F12 media followed by Dulbecco PBS. Various concentrations of PF4 or protamine sulfate (PRT) were incubated with cells for 10 minutes at 37° C. followed by the addition of PC and IIa, as described above. After incubation for 45 minutes, aliquots of the reaction mixture were transferred to 96-well plates and quenched by the addition of 1 mM EDTA and 100 nM hirudin. Generation of aPC was measured after the addition of 0.5 mM […] and determination of the initial rate of chromogenic substrate cleavage from absorbance measurements at 405 nm on a Thermomax™ Microtiter Vmax® plate reader (Molecular Devices).

[4] = WT mice, heparinoid 50 mg/kg, FIG. 8

2-O, 3-O desulfated heparin [ODSH]
effect of heparinoid on aPC generation with high doses of PF4 and histones [1]: enhanced aPC generation
effect of heparinoid on aPC generation at low levels of histones [1]: inhibited aPC generation
effect of heparinoid on aPC generation at higher levels of histones [1]: restored high levels of aPC generation
effect of heparinoid on aPC generation after histones (plasma aPC; [4]): suppressed detectable aPC generation
aPC levels in mice pretreated with heparinoid (plasma aPC; heparinoid 50 mg/kg, histones 75 mg/kg, WT mice, FIG. 8): aPC levels were raised
effect of heparinoid on histone lethality (mice): prevent these deaths
severe prolongation of aPTT in presence of high (sub-lethal and lethal) concentrations of histones [2]: reversed
dose required to markedly prolong the aPTT ([2]; non-histone treated mice, FIG. 9A): the same as needed to reverse histone lethality
antithrombin activity, fold less (antithrombin): ~60 fold

heparin
effect of heparin in absence of the GLA-domain of Protein C ([1]; Gla-domainless Protein C, TM+CS, FIG. 3E): did not have any effect
effect of heparin on histones/PF4 mediated aPC generation ([1]; TM+CS, PF4 50 μg/ml, histones 75 μg/ml, FIGS. 3B and 3C): first enhances aPC generation before a decrease in aPC generation
effect of UFH on peak aPC generation from histone plus PF4 ([1]; UFH 5 μg/ml, PF4 50 μg/ml, FIG. 6C): shifted to the right
effect of heparinoid on aPC generation with high doses of PF4 and histones [1]: enhanced aPC generation
effect of heparinoid on aPC generation at low levels of histones [1]: inhibited aPC generation
effect of heparin on aPC generation at below peak concentration of histones ([1]; histones 3 μg/ml, TM+CS, FIG. 2F): only decreased aPC generation
effect of heparinoid on aPC generation at higher levels of histones [1]: restored high levels of aPC generation
heparin concentration of optimal effect on aPC generation ([1]; histones present in excess (75 μg/ml), TM+CS, FIGS. 2E and 2F): 5 μg per ml
effect of heparin on aPC generation at low concentrations of PF4 ([3]; PF4 12.5 μg/ml, FIG. 1B): decreases aPC generation
effect of heparin on aPC generation at an excess of PF4 ([3]; PF4 400 μg/ml, FIG. 1B): shifts the curve back to the optimal PF4 concentration
effect of heparin on aPC generation at lower than optimal protamine sulfate concentration ([3]; PRT 1 μg/ml, FIG. 1D): only decreases aPC generation
effect of heparin on aPC generation at higher concentrations of PRT ([3]; PRT 20 μg/ml, FIG. 1D): a peak and then a decrease in aPC
effect of added heparin on histone curve for aPC generation ([3]; absence or presence of PF4): shifted the curve for aPC generation to the right
effect of heparinoid on aPC generation after histones (plasma aPC; [4]): suppressed detectable aPC generation
effect of heparinoid on histone lethality (mice): prevent these deaths
effect on aPTT in mice not exposed to histones ([2]; concentrations 10 and 100-times lower than needed to reverse histone lethality, FIG. 9A): marked prolongation of aPTT
severe prolongation of aPTT in presence of high (sub-lethal and lethal) concentrations of histones [2]: not by the UFH

platelet factor 4 [PF4]
potency on aPC activity compared with histones ([1]; FIGS. 2C and 2D): more potent than histones
increase of aPC generation by PF4 in absence of histones ([1]; PF4 3 μg/ml): > 3 fold
increase of aPC generation by PF4 in absence of histones ([1]; PF4 25 μg/ml): around 7 fold
PF4 concentration at peak of bell-shape curve of aPC generation ([3]; FIG. 1A): around 50 μg/ml
maximal increase of aPC generation ([3]; at peak of biphasic curve): ~6 times
PF4 concentration at peak of biphasic curve of aPC generation ([3]; in solution, human TM expressing HEK293, primary endothelial cells): around 25 μg/ml
effect of concurrently injected PF4 on plasma aPC (plasma aPC; PF4 knockout mice, PF4 5 mg/kg with IIa and histones, FIG. 4, 5 mg/kg): further increases the generation of aPC in plasma; also recorded: higher aPC levels

protamine sulfate [PRT]
shape of aPC generation versus protamine sulfate concentration ([3]; FIG. 1C): bell-shape curve
